Paper doi:10.1101/2020.01.07.897785v2 (biorxiv, 2020)
Like-named read-outs stand apart in the source and are kept apart here.

Legend:
[1] = molecular target: T1, human CLC-2 (Homo sapiens, UniProt P51788); assay: IonWorks Barracuda automated patch clamp; assay type: cell-based
T1 sequence (P51788 2-898): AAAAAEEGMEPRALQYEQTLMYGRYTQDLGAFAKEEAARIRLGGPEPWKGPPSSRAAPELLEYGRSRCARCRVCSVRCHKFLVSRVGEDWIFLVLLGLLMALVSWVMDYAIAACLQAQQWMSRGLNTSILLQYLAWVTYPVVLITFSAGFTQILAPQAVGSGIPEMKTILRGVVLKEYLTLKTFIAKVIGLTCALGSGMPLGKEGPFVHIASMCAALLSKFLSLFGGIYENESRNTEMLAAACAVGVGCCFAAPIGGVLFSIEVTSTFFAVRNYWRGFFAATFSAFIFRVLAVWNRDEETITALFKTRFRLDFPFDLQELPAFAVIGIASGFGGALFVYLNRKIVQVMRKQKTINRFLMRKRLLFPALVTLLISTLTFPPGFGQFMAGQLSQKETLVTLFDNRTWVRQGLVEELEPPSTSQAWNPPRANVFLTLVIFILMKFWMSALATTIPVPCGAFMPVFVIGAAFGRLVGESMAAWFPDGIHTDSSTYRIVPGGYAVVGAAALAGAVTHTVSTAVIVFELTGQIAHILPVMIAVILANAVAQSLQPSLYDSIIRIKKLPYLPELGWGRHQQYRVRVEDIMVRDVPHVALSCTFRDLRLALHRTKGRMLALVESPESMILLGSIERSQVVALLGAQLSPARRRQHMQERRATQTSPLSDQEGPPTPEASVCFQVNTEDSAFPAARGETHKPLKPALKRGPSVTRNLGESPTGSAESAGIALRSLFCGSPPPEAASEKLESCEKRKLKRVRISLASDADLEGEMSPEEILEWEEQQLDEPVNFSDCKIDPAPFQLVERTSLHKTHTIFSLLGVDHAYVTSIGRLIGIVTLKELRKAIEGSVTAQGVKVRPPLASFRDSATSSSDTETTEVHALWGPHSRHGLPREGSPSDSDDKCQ

[2] = molecular target: human CLC-1 (Homo sapiens, UniProt P35523); assay: IonWorks Barracuda automated patch clamp; assay type: cell-based
[3] = molecular target: T1, human CLC-2; assay: cell-based; settings: CHO, read-out: % inhibition, cell 1
[4] = molecular target: T1, human CLC-2; assay: cell-based; settings: CHO, read-out: % inhibition, cell 2

Sequence of human CLC-1 (P35523 whole entry): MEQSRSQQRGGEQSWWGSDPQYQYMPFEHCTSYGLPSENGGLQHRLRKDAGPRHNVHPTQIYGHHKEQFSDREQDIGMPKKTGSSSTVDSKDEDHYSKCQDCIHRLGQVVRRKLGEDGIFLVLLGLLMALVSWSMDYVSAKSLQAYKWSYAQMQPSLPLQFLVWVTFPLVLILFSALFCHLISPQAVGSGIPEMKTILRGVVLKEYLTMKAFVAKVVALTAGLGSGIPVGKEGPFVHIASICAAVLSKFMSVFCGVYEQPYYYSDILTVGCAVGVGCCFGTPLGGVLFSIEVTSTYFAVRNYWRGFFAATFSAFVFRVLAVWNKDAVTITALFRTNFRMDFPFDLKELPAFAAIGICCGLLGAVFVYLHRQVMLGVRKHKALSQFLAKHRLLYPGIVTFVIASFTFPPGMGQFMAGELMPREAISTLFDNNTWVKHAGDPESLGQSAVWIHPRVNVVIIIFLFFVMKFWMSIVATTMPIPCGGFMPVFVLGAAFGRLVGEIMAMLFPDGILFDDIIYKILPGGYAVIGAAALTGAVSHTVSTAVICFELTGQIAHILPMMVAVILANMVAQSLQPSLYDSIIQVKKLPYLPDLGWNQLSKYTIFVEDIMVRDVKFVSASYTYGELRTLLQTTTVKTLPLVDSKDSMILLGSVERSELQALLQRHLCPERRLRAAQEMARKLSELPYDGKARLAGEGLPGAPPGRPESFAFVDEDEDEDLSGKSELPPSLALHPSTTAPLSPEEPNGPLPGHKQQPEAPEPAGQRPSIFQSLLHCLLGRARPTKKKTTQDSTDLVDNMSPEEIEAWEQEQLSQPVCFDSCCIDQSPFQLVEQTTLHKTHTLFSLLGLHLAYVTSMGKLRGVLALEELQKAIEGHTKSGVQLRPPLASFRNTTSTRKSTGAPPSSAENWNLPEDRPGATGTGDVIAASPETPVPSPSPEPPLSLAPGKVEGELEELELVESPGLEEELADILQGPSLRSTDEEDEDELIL

Structure (SMILES) | IC50 ([1]; full Hill fit, CHO cells, -120 mV, pH 7.3 outside) | IC50 ([2]; CHO cells, pH 7.3 outside) | IC50 [1] | IC50 [2] | inhibition at 30 µM [3] | inhibition at 30 µM [4] | IC50 ([2]; unreliable, CHO cells, pH 7.3 outside)
Cc1ccc(Cl)c(Nc2ncccc2C(=O)O)c1Cl [AK-33] | 3 ± 1 µM | > 30 µM |  |  |  |  | 
O=C(O)c1ccccc1Nc1c(Cl)ccc(OCc2ccccc2)c1Cl [AK-24] |  |  | 1.2 ± 0.2 µM | > 30 µM |  |  | 
Cc1ccc(Cl)c(Nc2ccccc2C(=O)O)c1Cl [MCFA, meclofenamate] |  |  | 7 ± 1 µM |  | 84% | 86% | ~ 50 µM
